Reference: paper PMC12396291, “DNA-encoded library screening uncovers potent DNMT2 inhibitors targeting a cryptic allosteric binding site” (iScience, 2025)
Several values for one entry are separate records, joined by “and”; a condition that tells them apart may be missing. Identical values can stand only once. Entries after “also recorded” stand apart in the source; their conditions may differ.

Tests used:
[1] = Solubility remark from ITC titration; type: physicochemical; conditions: ITC buffer, remark in words
Description: (§1) The DNMT2 protein was purified via size exclusion chromatography eluting in isothermal titration calorimetry (ITC) buffer (50 mM sodium phosphate pH 8.0, 300 mM NaCl, 1 mM EDTA, 2 mM β-mercaptoethanol, 0.1% polysorbate-20) and directly used for measurements.[3] All compounds were dissolved in DMSO to a concentration of 5 mM and were then diluted in ITC buffer to a final concentration of 500 μM. DNMT2 was diluted to a final concentration of 50 μM with 10% DMSO to match the ligand stocks' DMSO concentration. For the ITC measurements, a MicroCal PEAQ-ITC Automated workstation (Malvern Panalytical) with a 200 μL Hastelloy cell and an injection syringe volume of 40 μL was used. All experiments were performed in triplicates at 25 °C unless otherwise noted. For each measurement, 19 compound injections (2 μL each) with an injection speed of 0.5 μL/s were added to the reaction cell containing DNMT2. The spacing time between sequential injections was 300 s, and the stirring speed was set to 750 rpm with a reference power of 42 μW. As control experiments, ligands were titrated into ITC buffer. Data analysis and fitting were carried out using the MicroCal PEAQ-ITC Analysis Software 1.21 and plotted in GraphPad Prism 8.0.1.

DNMT2-eIF4E interaction = target: T1, DNMT2-eIF4E interaction (Homo sapiens, UniProt O14717); test: Pull-down competition assay; type: binding; conditions: 100 μM sinefungin, 100 μM 16 or 10 μM tRNA^Asp
T1 construct: Recombinant human DNMT2 (full-length); host or cells: E. coli (DNMT2)
T1 sequence (P06730 whole entry partner, one chain of several): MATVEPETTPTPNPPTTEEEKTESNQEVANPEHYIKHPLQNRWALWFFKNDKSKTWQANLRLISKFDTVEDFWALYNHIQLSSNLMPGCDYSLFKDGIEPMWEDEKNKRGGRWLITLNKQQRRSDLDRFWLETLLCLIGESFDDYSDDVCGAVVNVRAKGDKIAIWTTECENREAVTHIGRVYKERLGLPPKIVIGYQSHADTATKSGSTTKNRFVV
Description: (§3) For immobilization on streptavidin beads, DNMT2 was biotinylated using the EZ-Link Sulfo-NHS-LC-Biotinylation kit. A 20-fold excess of Sulfo-NHS-LC-Biotin (10 mM in water) was added to DNMT2 and incubated for 2 h on ice. […] The biotinylation level was estimated using a HABA assay included in the kit according to the manufacturer’s protocols.
(§4) For in vitro pull-down assays, biotinylated DNMT2 was immobilized on streptavidin-coated paramagnetic beads (GenScript Streptavidin MagBeads). For this, beads were washed with PBS buffer containing 0.05% Triton X-100, and subsequently, DNMT2 (30 μg per 50 μL beads) was immobilized for 45 min at RT. As a negative control, beads were treated with a protein-free buffered solution. Beads were washed with PBS buffer, and for each sample, 5 μL beads were added to either 1.5 μg of recombinant NonO protein (Active Motif) or 3.0 μg of recombinant eIF4E protein (Cayman). Beads were incubated for 1 h at RT, and subsequently, the supernatant was removed. […] The samples were incubated for 45 min at RT, and the supernatant was treated with 2 μL 5× Laemmli buffer. […] All samples were heated to 95 °C for 10 min and analyzed via SDS-PAGE. […] Protein bands were visualized using a GE Healthcare Typhoon Trio biomolecular scanner, with laser excitation at 488 nm and fluorescence detection at 580 nm.

DNMT2-NonO interaction = target: T2, DNMT2-NonO interaction (Homo sapiens, UniProt O14717); test: Pull-down competition assay; type: binding; conditions: 100 μM SFG, 100 μM 16 or 10 μM tRNA^Asp
T2 construct: Recombinant human DNMT2 (full-length); host or cells: E. coli (DNMT2)
T2 sequence (O14717 1-391): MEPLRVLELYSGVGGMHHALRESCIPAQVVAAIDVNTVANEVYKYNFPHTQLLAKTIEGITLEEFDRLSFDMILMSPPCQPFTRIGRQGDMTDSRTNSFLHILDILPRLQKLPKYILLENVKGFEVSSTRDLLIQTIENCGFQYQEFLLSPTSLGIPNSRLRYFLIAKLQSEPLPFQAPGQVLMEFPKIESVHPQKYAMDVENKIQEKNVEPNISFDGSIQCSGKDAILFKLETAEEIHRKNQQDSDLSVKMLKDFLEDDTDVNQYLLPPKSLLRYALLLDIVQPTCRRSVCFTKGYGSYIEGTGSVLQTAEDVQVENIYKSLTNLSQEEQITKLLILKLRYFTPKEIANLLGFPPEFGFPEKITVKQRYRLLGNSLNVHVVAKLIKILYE
T2 sequence (Q15233 1-471 partner): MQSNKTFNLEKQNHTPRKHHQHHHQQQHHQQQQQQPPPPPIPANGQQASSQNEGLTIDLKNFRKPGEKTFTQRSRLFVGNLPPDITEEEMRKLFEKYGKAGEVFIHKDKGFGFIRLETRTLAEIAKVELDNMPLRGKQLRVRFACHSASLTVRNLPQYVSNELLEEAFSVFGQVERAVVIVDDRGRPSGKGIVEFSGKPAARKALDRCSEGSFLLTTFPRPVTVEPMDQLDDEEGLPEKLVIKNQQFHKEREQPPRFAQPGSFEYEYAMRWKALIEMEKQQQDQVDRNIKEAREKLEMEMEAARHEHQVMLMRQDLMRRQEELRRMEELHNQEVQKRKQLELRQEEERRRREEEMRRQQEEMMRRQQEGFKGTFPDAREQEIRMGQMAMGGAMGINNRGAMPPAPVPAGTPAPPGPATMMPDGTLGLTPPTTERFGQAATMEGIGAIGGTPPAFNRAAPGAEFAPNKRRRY
Description: as §3, §4

DNMT2 [2] = target: T3, DNMT2 (Homo sapiens, UniProt O14717); test: ^3H-based methyltransferase enzyme activity assay (^3H-SAM incorporation into tRNA^Asp); type: biochemical
T3 construct: Recombinant human DNMT2 (full-length); His-tag; made in house; host or cells: E. coli
T3 sequence (O14717 1-391): T2 sequence (O14717 1-391)
Description: Enzymatic DNMT2 inhibition assays were carried out in 100 mM Tris-HCl, pH 8.0, 100 mM NH4OAc, 0.1 mM EDTA, 10 mM MgCl2, and 10 mM DTT as described previously.[3]^,[4] First, the tRNA^Asp substrate was heated to 75 °C for 5 min and cooled down to room temperature (RT) before it was added to the reaction mixture to a final concentration of 5 μM. The reaction mixture contained 250 nM DNMT2 and the ligand compounds at variable concentrations (5% DMSO). Enzymatic reactions were started by the addition of 0.9 μM SAM as a mixture of ^3H-SAM (Hartmann Analytics) resp. cold SAM (NEB) to a final activity of 0.025 μCi μL^−1. Enzyme assays were carried out for 30 min at 37 °C. As a negative control served the reaction mixture without DNMT2 and as a positive control the reaction mixture without test compound. After 30 min, aliquots of 8 μL were taken from the reaction mixture and spotted on Whatman glass microfiber filters (GF/C, 25 mm). The RNA was precipitated on the filters with 5% ice-cold TCA for 15 min. […] Scintillation was measured with a scintillation counter (TriCarb Liquid Scintillation Analyzer 4810 TR; measurement time of 1 min). For IC50-value determination, compounds were analyzed at a minimum of six different concentrations in triplicates. IC50-values were calculated, evaluated, and plotted in GraphPad Prism 8.0.1.

DNMT2 [3] = target: T3, DNMT2; test: MST displacement assay with fluorescent FTAD probe; type: binding; parameters: Fnorm (MST screening): unit not given here
Description: (§2) Screening for ligand binding and evaluation of dose-response affinity profiles was performed via microscale thermophoresis (MST) as described previously.[42] The measurements were conducted with a Nanotemper Technologies Monolith NT.115 device. All samples were measured in Monolith standard capillaries at 25 °C. The acquisition mode was set to “Nano-Blue” with an excitation power of 30% and a medium MST power, while the system was controlled using the software MO.Control (version 1.6.1) and for evaluation MO.Affinity Analysis (version 2.3) was used. The samples contained 2 μM DNMT2, 100 nM FTAD (5-FAM-triazolyl-adenosyl-Dab) probe, and 1.3% DMSO in MST buffer (50 mM HEPES, 150 mM NaCl, 1 mM dithiothreitol (DTT), 0.1% PEG-8000, 0.05% polysorbate-20, pH 7.4).[42] All compounds were employed at a final concentration of 100 μM for the initial ligand screening.

DNMT2 [4] = target: T3, DNMT2; test: Isothermal titration calorimetry (ITC), direct titration; type: binding; conditions: direct titration at 25 °C; n.b. = no enthalpy signal observable
Description: as §1

DNMT2 [5] = target: T3, DNMT2; test: Affinity selection-mass spectrometry (AS-MS); type: binding; conditions: 5 μM DNMT2, label-free
Description: Orthogonal KD-value determination for compound 3 was conducted by an affinity selection-mass spectrometry (AS-MS) assay according to Prudent et al.[43] and Simon et al.[67] Compound 3 was dissolved in DMSO (20 mM) and a dilution series in Tris buffer (25 mM Tris, 100 mM NaCl, pH 7.5) was prepared to give final ligand concentrations of 100 μM, 50 μM, 25 μM, 12.5 μM, 6.25 μM, 3.12 μM, 1.56 μM, and 0 μM. DNMT2 was diluted in Tris buffer (130 μM) and added to the dilution series to give a final concentration of 5 μM DNMT2. Zeba Spin Desalting columns 7K MWCO were used for the affinity-based separation. These columns were centrifuged at 2000g for 1 min to remove the storage buffer. 20 μL of the prepared samples were loaded to the columns, and the protein-ligand complex was eluted by centrifugation at 2000g for 2 min. The centrifuged solutions were diluted with 10 μL ACN and analyzed by LC/MS with an Agilent 1100 Series HPLC system. The data evaluation and subsequent binding affinity determination were performed with MestReNova (version 14.0.1) and GraphPad Prism 8.0.1.

DNMT2Δ47 = target: T4, DNMT2Δ47 (Homo sapiens, UniProt O14717, DEL191-237); test: MST FTAD assay with deletion mutant; type: binding; conditions: DNMT2Δ47 2 μM, FTAD probe; read-out: affinity (MST KD) against DNMT2Δ47
T4 construct: His-tag; made in house; host or cells: E. coli (host printed only for the crystallization preparation)
T4 sequence (O14717 with tags, fused parts or gaps DEL191-237): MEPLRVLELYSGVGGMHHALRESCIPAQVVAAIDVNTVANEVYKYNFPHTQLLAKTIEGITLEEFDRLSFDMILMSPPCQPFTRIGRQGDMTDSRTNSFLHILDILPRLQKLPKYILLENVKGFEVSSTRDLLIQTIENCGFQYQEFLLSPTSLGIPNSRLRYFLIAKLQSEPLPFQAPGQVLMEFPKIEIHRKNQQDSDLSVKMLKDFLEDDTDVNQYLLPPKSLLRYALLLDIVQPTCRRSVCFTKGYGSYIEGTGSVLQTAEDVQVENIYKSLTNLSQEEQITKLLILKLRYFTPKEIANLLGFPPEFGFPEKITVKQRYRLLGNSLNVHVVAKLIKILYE
Description: as §2

[6] = Parallel artificial membrane permeation assay (PAMPA); type: in vitro ADME; conditions: 7 h incubation, duplicates
Description: To determine the passive permeability of selected DNMT2 ligands, a parallel artificial membrane permeation assay (PAMPA) was performed as described previously.[68] The experiment was performed in duplicates with Sigma-Aldrich MAIPNTR10 donor plates with 5 μL of an artificial membrane (1% w/v L-α-phosphatidylcholine in n-dodecane) per well. After incubation for 7 h, the acceptor solutions were evaluated by LC/MS (HP Agilent 1100 Series). The peak areas in the UV chromatogram (λ = 210 nm) were used to calculate the areas under the curve (AUCs).

DNMT2 in MOLM-13 cells = target: T5, DNMT2 in MOLM-13 cells (Homo sapiens, UniProt O14717); test: Cellular thermal shift assay (CETSA); type: cell-based; conditions: MOLM-13, 50 μM, 16 h
T5 construct: engages DNMT2 in the MOLM-13 cellular environment, we performed cellular thermal shift assays (CETSA); endogenous in cells; host or cells: MOLM-13
T5 sequence (O14717 1-391): T2 sequence (O14717 1-391)
Description: After incubation for 16 h (37 °C, 5% CO2), the cell suspensions were collected. The cells were washed twice and then counted, followed by the addition of 1 mL PBS. The cell suspension was divided into eight parts, and then heated for 4 min at various temperatures (40, 43, 46, 49, 52, 55, 58 °C) in a PCR thermocycler. The cells were lysed through a freeze-thaw process using liquid nitrogen. The supernatant solutions were used for immunoblotting analysis. […] Proteins were separated by SDS−PAGE on 4–20% Criterion TGX Precast Protein Gels (Bio-Rad) and transferred to Amersham Protean 0.45 μm nitrocellulose membrane (Cytiva) using semi-dry transfer (25 V, 1 A, Towbin buffer). […] Subsequently, the membrane was incubated for 3 h at RT with IRDye 680RD Goat anti-Rabbit (1:1000, LICOR, 926–68071). Protein bands were visualized using a GE Healthcare Typhoon Trio biomolecular scanner, with laser excitation at 637 nm and fluorescence detection at 670 nm. The ImageLab software (Bio-Rad) was used for band quantification.

MOLM-13 cells = test: Cell viability assay, doxorubicin co-treatment; type: cell-based; conditions: Homo sapiens; MOLM-13, doxorubicin 48 h; read-out: CC50 (only doxorubicin)
Description: Cell viability assays were conducted with MOLM-13 cells, Huh-7, MDA-MB-231, HEK293, and HCT MTase mutant cell lines (WT, knock-down DNMT2, and knock-down NSUN2) to investigate the DNMT2 inhibiting compounds’ cellular effect. Cells were cultured according to standard protocols: MOLM-13 (RPMI, 10% FBS, 1x Penicillin/Streptomycin, 37 °C, 5% CO2), Huh-7/MDA-MB-231/HEK293 (DMEM, 10% FBS, 1x Penicillin/Streptomycin, 37 °C, 5% CO2) and HCT (McCoys’s 5A Medium, 10% FBS, L-Glutamine, 1x Penicillin/Streptomycin, 37 °C, 5% CO2). Cell viability was assessed using Promega Cell Titer Glo assay kit (MOLM-13, Huh-7, MDA-MB-231, HEK293) or Lonza ViaLight Plus Cell Proliferation and Cytotoxicity BioAssay Kit (HCT cell lines). Briefly, 1000 cells were seeded in white Greiner half-area 96-well plates and incubated for 48 h with inhibitors/ligands from DMSO stocks (final: 0.1% DMSO) under standard cultivation conditions. Then, the cell titer reagent was added to each well according to the manufacturer’s protocols, and luminescence was measured using a Tecan Spark 10M plate reader (MOLM-13, Huh-7, MDA-MB-231, HEK293) or Molecular Devices FlexStation (HCT cell lines).

[7] = ATP-quantifying cell viability assay, 48 h; type: cell-based; conditions: human, MOLM-13, HCT, Huh-7, MDA-MB-231 and HEK293 cells, all cell lines

## CNC(=O)[C@@H](Nc1nc(N2CCN(c3c(C)cccc3C)CC2)nc(N(C)c2cccc(C)c2)n1)[C@@H](C)OC(C)(C)C [Compound 2]
[1]
  solubility: low solubility

## Nc1ncnc2c1ncn2[C@@H]1O[C@H](C[C@@H](N)CC[C@H](N)C(=O)O)[C@@H](O)[C@H]1O [sinefungin]
DNMT2-eIF4E interaction
  displacement of eIF4E from immobilized DNMT2: neither NonO nor eIF4E could be displaced
DNMT2-NonO interaction
  displacement of NonO from immobilized DNMT2: NonO could not be displaced

## CCc1ccc(C(=O)NCC2(C(=O)NC(CC(=O)NCC(=O)NC)Cc3c[nH]c4ccccc34)CC2)cc1 (stereo not drawn) [Compound 3]
DNMT2 [2]
  IC50: 38.9 ± 6.9 µM
DNMT2 [3]; DEL hits, result in words
  FTAD displacement in the MST assay: quantitative FTAD displacement
DNMT2 [3]; FTAD probe 100 nM, 2 μM DNMT2, n.b. = no thermophoresis shift observable
  Kd: 48 µM and 48.2 µM
DNMT2 [3]; ligand 100 μM, FTAD probe
  Fnorm (% displ.): FTAD displacement: 53%
  Fnorm (MST screening): 912.1
DNMT2 [4]
  Kd: 5.3 µM and 5.31 µM
DNMT2 [5]
  Kd: 8.4 ± 2.2 µM
DNMT2Δ47
  Kd: 102 µM
[6]
  Papp (PAMPA): failed to pass through the artificial membrane; also recorded: below detection limit
DNMT2 in MOLM-13 cells
  thermal stabilization of DNMT2 (CETSA): no thermal stabilization occurred

## COc1cccc2c1C(=O)c1c(O)c3c(c(O)c1C2=O)C[C@@](O)(C(=O)CO)C[C@@H]3O[C@H]1C[C@H](N)[C@H](O)[C@H](C)O1 [doxorubicin]
MOLM-13 cells
  CC50: 0.045 ± 0.003 µM

## Nc1ncn([C@@H]2O[C@H](CO)[C@@H](O)[C@H]2O)c(=O)n1 [azacitidine]
[7]
  CC50 at 48 h: < 10 µM
